Earlier results, collected in US20250144159A1, “COMPOSITION COMPRISING A MIXTURE OF DHA AND/OR EPA AND A PHOSPHOLIPID OF PLANT ORIGIN” (POLARIS, priority 2022, published 2025).

Conditions: oral intake; compared with DHA in triglyceride (TG) form

| Structure (SMILES) | cerebral capture of DHA |
| --- | --- |
| CCC=CCC=CCC=CCC=CCC=CCC=CCCC(=O)OC(COC(C)=O)COP(=O)([O-])OCC[N+](C)(C)C (centres unmarked) [AceDoPC] | improves |
| CC/C=C\C/C=C\C/C=C\C/C=C\C/C=C\C/C=C\CCC(=O)OC(CO)COP(=O)([O-])OCC[N+](C)(C)C (centres unmarked) [lysoPC-DHA] | improves |
